Patent publication US20180147206A1, “ACTIVATION OF NEURONAL STORE-OPERATED CALCIUM ENTRY PATHWAY FOR THE TREATMENT OF ALZHEIMER'S DISEASE” (The Board of Regents of the University of Texas System, priority 2015, published 2018)

What was measured:
[1] = test system: spine nSOC channels; assay: GCamp5.3 Ca2+ imaging of synaptic nSOC in cultured hippocampal neurons; format: cell-based, mouse
[2] = test system: other TRPCs (TRPC1-7), Orais (Orai1-3), or combination of TRPC6 and Orai2; assay: Fura-2 Ca2+ imaging in HEK293 cells transfected with other TRPCs, Orais or TRPC6 plus Orai2; format: cell-based; details: 1 μM (data not shown)
Description: To confirm the target for Hyp and NSN compounds, the inventors overexpressed TRPC6 in HEK293 cells and performed a series of Fura-2 Ca^2+ imaging experiments. […] In additional experiments, the inventors evaluated effects of 1 μM NSN compound in experiments with HEK293 cells transfected with other TRPCs (TRPC1-7), Orais (Orail-3), or combination of TRPC6 and Orai2. […] From these experiments, the inventors concluded that Hyp acts as direct activator of TRPC6 channels, but the actions of NSN compound are more complex. In further experiments, the inventors measured SOC in conditions of store depletion. To achieve this, HEK239 cells were preincubated in Ca^2+-free media containing 1 μM Tg. In these experiments, the inventors observed endogenous SOC response in EGFP-transfected cells, which was further enhanced in TRPC6-transfected cells. […] TRPC6 channels are known to be activated by DAG (Estacion et al., 2004). In spine nSOC measurements, addition of 100 μM DHPG was required to generate robust Ca^2+ responses. Thus, in the next series of experiments, the inventors evaluated effects of OAG, a synthetic and stable analog of DAG.

[3] = test system: mushroom spines in hippocampal CA1 neurons; assay: Dendritic spine analysis in hippocampal slice; format: cell-based, mouse; details: 6 month-old mice, 300 nM for 3.5 hours
Description: FIGS. 6A-E. NSN21778 rescues mushroom spine and synaptic plasticity defects in AD hippocampal slices. (FIG. 6A) Confocal images of CA1 hippocampal slices from 6 month-old WTGFP, PS1KIGFP, and APPKIGFP mice. The images are shown for untreated slices (CON) and for slices treated with 300 nM NSN21778 (+NSN) for 3.5 hrs prior to fixation. Scale bar is 10 μm. (FIG. 6B) The fraction of mushroom spines in hippocampal CA1 neurons from 6 month-old WTGFP, PS1KIGFP, and APPKIGFP mice. The results are shown for untreated slices (CON) and for slices treated with 300 nM NSN21778 (+NSN). The average fraction of mushroom spines for each group of cells is shown as mean±SE (n≥31 neurons). ***, p <0.001. (FIG. 6C) Sample fEPSP traces are shown for 6 month-old WT and APPKI hippocampal slices prior to stimulation (basal), immediately after tetanus stimulation (induction) and 1 h after tetanus stimulation (after 1 hr). The results are shown for untreated slices and for slices pre-treated with 300 nM NSN21778 (+NSN) for 2-3 hours prior to tetanus stimulation. (FIG. 6D) The normalized and averaged fEPSP slope is shown as a function of time in the experiments with 6 month-old wild-type and APPKI slices with (+NSN) or without 300 nM NSN21778 pre-treatment. […]
Dendritic Spine Analysis in Hippocampal slice. […] Approximately 25 neurons from 5 mice were analyzed for each genotype. […]

[4] = Stability in CD-1 mouse plasma; format: in vitro ADME; details: commercial CD-1 mouse plasma; 2 μM
Description: FIGS. 12A-D. NSN21778 in vitro metabolism stability, in vivo plasma pharmacokinetics, and side effect on body weight (Related to FIGS. 7A-G). (FIG. 12A) The metabolic stability of NSN21778 was evaluated in vitro after incubation with commercial liver S9 fractions in the presence of phase I (NADPH regenerating system) cofactors. Compound levels were determined by LC-MS/MS. Additionally, the stability of NSN21778 in the presence of commercial CD-1 mouse plasma was measured. (FIG. 12B) NSN21778 was dosed i.p. at 10 mg/kg to female CD-1 mice. Levels of NSN21778 in plasma and brain were evaluated by LC-MS/MS. (FIG. 12C) WTGFP, PS1KIGFP and APPKIGFP mice body weight after i.p. administrated with control solution or 10 mg/kg NSN21778 for 10 weeks. Data presented as mean±SE (n=5 mice). (FIG. 12D) Body weight gained for various treatments.
In vitro metabolism assays. Female ICR/CD-1 mouse S9 fractions were purchased from Celsis/In Vitro Technologies (Baltimore, Md.). 25 μl (0.5 mg) of S9 protein was added to a 15 ml glass screw cap tube. […] The supernatant was analyzed by LC-MS/MS. Stability in commercial mouse CD-1 plasma (Bioreclamation, Westbury, N.Y.) was measured in a similar fashion. […] Reactions were quenched with methanol as above and supernatants evaluated by LC-MS/MS. Compound half-life was determined by the method of substrate depletion as described (McNaney et al., 2008).

Compound: CC(=O)Nc1ccc(CCNc2ncnc3ccc(N)cc23)cc1 [NSN21778, N-{4-[2-(6-Amino-quinazolin-4-ylamino)-ethyl]-phenyl}-acetamide]
- spine nSOC ([1]; PS1KI and APPKI hippocampal neurons, 300 nM applied prior to Ca2+ re-addition): rescued spine nSOC
- spine nSOC ([1]; wild-type spines, 300 nM): no significant effect
- Ca2+ influx [2]: failed to induce Ca^2+ influx
- mushroom spines ([3]; PS1KIGFP and APPKIGFP hippocampal slices): complete rescue
- mushroom spines ([3]; WTGFP slices): no effect
- stability in plasma [4]: stable
